Test results taken from EP3578378B1, “RECORDING MEDIUM AND METHOD FOR PRODUCING RECORDING MEDIUM” (CANON KABUSHIKI KAISHA, priority 2018, dated 2019).
≈ marks a conversion by molar mass, not a printed value.

Test: Solubility of compound (B) in water at 20°C (10.0 g sample in 100 mL ion-exchange water, undissolved or recrystallized sample weighed)
Format: physicochemical
Conditions: stirred at 80°C for one hour, cooled to 20°C, more than 10.0 g/100 mL if completely dissolved
Method: The method for measuring this solubility is as follows.
First, 10.0 g of a sample to be measured is added to 100 mL of ion-exchange water, and the resulting mixture is stirred at 80°C for one hour to dissolve the sample. Next, the resulting solution in which the sample is dissolved is cooled to 20°C. The sample that remains without being dissolved or is recrystallized is collected, and the weight thereof is determined. […] Crosslinking Agent

| Structure (SMILES) | Solubility in water at 20°C [g/100 mL] | solubility thermodynamic at 1 h [mg/mL] |
| --- | --- | --- |
| O=C(O)c1cc(O)c(O)c(O)c1 [Gallic acid, gallic acid] | 1.0 |  |
| O=C(O)c1cc(C(=O)O)c(C(=O)O)cc1C(=O)O [Pyromellitic acid, pyromellitic acid] |  | 15 (≈ 59 mM) |
| CC(=O)[O-].CC(=O)[O-].[O-2].[Zr+4] [ZrO(C2H3O2)2, reference compound] | >10 |  |
| NC(=O)c1cc(C(N)=O)cc(C(N)=O)c1 [Trimesamide, trimesamide] | 0.2 |  |
| O=C(O)/C=C\C(=O)O [Maleic acid, maleic acid, reference compound] | >10.0 |  |
| O=C(O)/C=C/C(=O)O [Fumaric acid, fumaric acid] | 0.5 |  |
| NC(=O)/C=C/C(N)=O [Fumaramide, fumaramide] | 0.2 |  |
| [Cl-].[Cl-].[O]=[Zr+2] [ZrOCl2, reference compound] | >10 |  |

Next, values leading:

| Solubility in water at 20°C [g/100 mL] | solubility thermodynamic at 1 h [mg/mL] | Structure (SMILES) |
| --- | --- | --- |
| 2.0 |  | O=C(O)c1cccc(C(=O)O)c1C(=O)O [Hemimellitic acid, hemimellitic acid] |
|  | > 100 | Oc1ccc(O)c(O)c1 [1,2,4-Trihydroxybenzene, 1,2,4-trihydroxybenzene, reference compound] |
| 2.0 |  | O=C(O)c1ccc(C(=O)O)c(C(=O)O)c1 [Trimellitic acid, trimellitic acid] |
| 0.5 |  | O=C(O)c1cc(C(=O)O)cc(C(=O)O)c1 [Trimesic acid, trimesic acid] |
